# Laboratory results taken from patent US11419881B2, “Treatment of migraine” (priority 2019, dated 2022).
# What was measured:
# [1] = molecular target: T1, progestin receptors (Homo sapiens, UniProt P06401); test: In vitro agonist/antagonist activity on progestin receptors; type: biochemical
# T1 sequence (P06401 1-933): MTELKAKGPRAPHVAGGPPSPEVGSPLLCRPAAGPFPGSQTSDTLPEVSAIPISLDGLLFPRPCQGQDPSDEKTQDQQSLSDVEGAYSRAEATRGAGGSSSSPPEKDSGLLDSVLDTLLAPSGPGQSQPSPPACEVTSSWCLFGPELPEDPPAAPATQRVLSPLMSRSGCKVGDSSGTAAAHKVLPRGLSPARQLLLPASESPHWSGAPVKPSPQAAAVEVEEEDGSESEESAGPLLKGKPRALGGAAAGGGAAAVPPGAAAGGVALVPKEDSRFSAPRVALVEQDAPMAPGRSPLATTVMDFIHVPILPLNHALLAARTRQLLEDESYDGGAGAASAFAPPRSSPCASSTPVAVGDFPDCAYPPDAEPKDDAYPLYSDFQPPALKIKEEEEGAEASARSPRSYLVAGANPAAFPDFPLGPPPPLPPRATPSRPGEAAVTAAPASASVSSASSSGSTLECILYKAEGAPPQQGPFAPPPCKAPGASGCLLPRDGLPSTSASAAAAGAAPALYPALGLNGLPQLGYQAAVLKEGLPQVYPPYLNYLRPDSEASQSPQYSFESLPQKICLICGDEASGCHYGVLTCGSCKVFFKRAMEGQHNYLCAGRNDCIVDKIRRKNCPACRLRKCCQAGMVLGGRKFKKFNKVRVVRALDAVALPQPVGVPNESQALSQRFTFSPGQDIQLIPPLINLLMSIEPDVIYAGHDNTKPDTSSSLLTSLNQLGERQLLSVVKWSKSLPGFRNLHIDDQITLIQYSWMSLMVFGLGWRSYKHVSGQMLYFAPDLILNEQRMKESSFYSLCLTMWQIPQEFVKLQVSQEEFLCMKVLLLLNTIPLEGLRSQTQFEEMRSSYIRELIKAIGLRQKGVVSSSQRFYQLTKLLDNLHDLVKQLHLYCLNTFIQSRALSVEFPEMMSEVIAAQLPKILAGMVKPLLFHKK
# [2] = system: isolated human nasal chemosensory neurons; test: Electrophysiology: inward currents in isolated human nasal chemosensory neurons; type: cell-based
# [3] = molecular target: T2, glucocorticoid receptors (Homo sapiens, UniProt P04150); test: In vitro agonist/antagonist activity on glucocorticoid receptors; type: biochemical
# T2 sequence (P04150 1-777): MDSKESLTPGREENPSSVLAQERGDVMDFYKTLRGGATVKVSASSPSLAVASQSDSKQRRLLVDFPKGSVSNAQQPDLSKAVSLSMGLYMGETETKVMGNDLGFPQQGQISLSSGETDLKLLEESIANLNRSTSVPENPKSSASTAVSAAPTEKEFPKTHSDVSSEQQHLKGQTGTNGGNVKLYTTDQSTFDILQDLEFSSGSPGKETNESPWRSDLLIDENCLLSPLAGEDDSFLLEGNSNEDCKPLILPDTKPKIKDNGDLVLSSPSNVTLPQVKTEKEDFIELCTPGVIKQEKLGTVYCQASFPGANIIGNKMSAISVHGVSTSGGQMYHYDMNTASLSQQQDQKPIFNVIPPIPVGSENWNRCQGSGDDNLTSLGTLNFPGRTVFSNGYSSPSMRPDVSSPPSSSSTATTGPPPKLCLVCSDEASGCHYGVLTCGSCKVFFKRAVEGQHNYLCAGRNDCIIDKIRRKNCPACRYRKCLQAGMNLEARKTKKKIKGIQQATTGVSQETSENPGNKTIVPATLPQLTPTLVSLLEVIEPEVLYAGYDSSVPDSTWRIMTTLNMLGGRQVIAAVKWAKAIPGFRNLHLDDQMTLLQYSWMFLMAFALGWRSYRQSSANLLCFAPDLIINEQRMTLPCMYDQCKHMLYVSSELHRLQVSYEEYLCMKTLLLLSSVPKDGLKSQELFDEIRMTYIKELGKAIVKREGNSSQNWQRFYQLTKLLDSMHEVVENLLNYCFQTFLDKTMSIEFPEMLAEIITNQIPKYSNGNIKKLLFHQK
compound,measurement,setting,value
"C[C@]12CC[C@H]3[C@@H](CCC4=CC(=O)CC[C@@]43O)[C@@H]1C[C@H]1O[C@H]12 [16α,17α-epoxy-10β-hydroxyestr-4-en-3-one]",agonist or antagonist activity on progestin receptors,[1],no agonist or antagonist activity
same,inward currents in isolated human nasal chemosensory neurons,[2]; isolated neurons,induced inward currents
same,concentration giving maximal response (amplitude),[2]; response amplitude increased with concentration,10^−7 to 10^−6 M
same,agonist or antagonist activity on glucocorticoid receptors,[3],no agonist or antagonist activity
